What is called IC50 is the concentration needed to halve the response being measured.

Chain of human P2X7 receptor (Q99572 whole entry): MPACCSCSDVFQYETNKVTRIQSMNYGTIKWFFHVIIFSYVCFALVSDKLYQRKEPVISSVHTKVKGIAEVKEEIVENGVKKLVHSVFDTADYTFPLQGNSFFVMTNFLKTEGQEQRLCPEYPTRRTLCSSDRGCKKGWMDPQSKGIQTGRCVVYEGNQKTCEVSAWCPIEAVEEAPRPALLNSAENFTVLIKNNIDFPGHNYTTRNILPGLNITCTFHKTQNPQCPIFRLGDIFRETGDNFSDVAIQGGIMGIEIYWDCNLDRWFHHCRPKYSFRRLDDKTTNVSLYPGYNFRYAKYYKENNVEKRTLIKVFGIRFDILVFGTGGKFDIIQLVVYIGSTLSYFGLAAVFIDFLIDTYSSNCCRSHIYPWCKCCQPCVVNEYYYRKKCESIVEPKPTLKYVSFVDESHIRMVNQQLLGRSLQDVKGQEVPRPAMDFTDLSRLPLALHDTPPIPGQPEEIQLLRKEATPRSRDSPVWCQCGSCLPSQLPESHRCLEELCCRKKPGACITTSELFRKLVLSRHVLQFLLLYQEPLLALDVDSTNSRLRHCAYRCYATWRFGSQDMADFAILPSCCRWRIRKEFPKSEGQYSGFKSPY

One test addresses human P2X7 receptor (Homo sapiens (Human), UniProt Q99572). The test can be described thus: Pore permeation assay (YO PRO dye uptake). Format: cell-based.
Details: not given
As to the method: Agonist-induced pore formation was determined by measuring cellular uptake of YO PRO fluorescence dye in HEK293 transfected with human P2X7 receptor. A HEK293 cell over expressing human P2X7 was harvested using HQTase reagent to detach the cells from T75 cm flask. The harvested cells are centrifuged @1200 rpm for 5 min at room temperature. The viability of cells was determined by Trypan blue dye and the cells are plated @10,000 cell/well in 50 ul volume in a 384W BD Poly lysine coated plate and incubated overnight at 37 C. […] The plate was centrifuged at 1000 rpm for 5 seconds and incubated at room temperature for 30 minutes. The uptake of YO PRO dye into the cells was measured using Envision Fluorescence plate reader instrument (Perkin Elmer).
The molecule `O=C(NC1(C2CCCCC2)CC1)c1cn(C2COC2)c2cccc(Cl)c12` [Compound 55, 4-Chloro-1-oxetan-3-yl-1H-indole-3-carboxylic acid (1-cyclohexyl-cyclopropyl)-amide] yielded an IC50 of 101 to 500 nM.
The same measure, in the same setting: next, `COCCn1cc(C(=O)NCCC2(O)CCCC2)c2c(Cl)cccc21` [Compound 16, 4-Chloro-1-(2-methoxy-ethyl)-1H-indole-3-carboxylic acid [2-(1-hydroxy-cyclopentyl)-ethyl]-amide]: 500 to 999 nM; `O=C(NCC(F)F)c1cn(C2COC2)c2cccc(Cl)c12` [Compound 76, 4-Chloro-1-oxetan-3-yl-1H-indole-3-carboxylic acid (2,2-difluoro-ethyl)-amide]: over 1000 nM.
Same read-out and setting: to `O=C(NCC1CCC(F)(F)CC1)c1cn(C2CCCO2)c2cccc(Cl)c12` (stereo not drawn) [Compound 99, 4-chloro-N-((4,4-difluorocyclohexyl)methyl)-1-(tetrahydrofuran-2-yl)-1H-indole-3-carboxamide] belongs 101 to 500 nM; to `O=C(NCC1(O)CCCC(F)(F)C1)c1cn(CCN2CCCCC2)c2cccc(Cl)c12` (stereo not drawn) [Compound 192, 4-chloro-N-((3,3-difluoro-1-hydroxycyclohexyl)methyl)-1-(2-(piperidin-1-yl)ethyl)-1H-indole-3-carboxamide], 101 to 500 nM; to `COCCn1cc(C(=O)NC2COc3ccccc3C2)c2c(Cl)cccc21` (stereo not drawn) [Compound 29, 4-Chloro-1-(2-methoxy-ethyl)-1H-indole-3-carboxylic acid chroman-3-ylamide], 101 to 500 nM.
Same read-out and setting: to `COCCn1cc(C(=O)NC[C@]2(O)CCC[C@H](C)C2)c2c(Cl)cccc21` [Compound 14, 4-Chloro-1-(2-methoxy-ethyl)-1H-indole-3-carboxylic acid ((1S,3S)-1-hydroxy-3-methyl-cyclohexylmethyl)-amide] belongs 10 to 100 nM.
On to `O=C(NCC1CCC(F)(F)CC1)c1cn(CCC(F)F)c2cccc(Cl)c12` [Compound 11, 4-Chloro-1-(3,3-difluoro-propyl)-1H-indole-3-carboxylic acid (4,4-di fluoro-cyclohexyl methyl)-amide], for which the half-inhibitory concentration (IC50) lay in the range of 10 to 100 nM.
The same measure, in the same setting: to `CC(C)(CNC(=O)c1cn(C2COC2)c2cccc(Cl)c12)C1CCCC1` [Compound 50, 4-Chloro-1-oxetan-3-yl-1H-indole-3-carboxylic acid (2-cyclopentyl-2-methyl-propyl)-amide] belongs 101 to 500 nM; to `O=C(NCC1CCC(F)(F)CC1)c1cn(C2CC3(CNC3)C2)c2cccc(Cl)c12` (stereo not drawn) [Compound 172, 4-chloro-N-((4,4-difluorocyclohexyl)methyl)-1-(2-azaspiro[3.3]heptan-6-yl)-1H-indole-3-carboxamide], 500 to 999 nM; to `CC(O)(CNC(=O)c1cn(C2COC2)c2cccc(Cl)c12)C1CCCC1` (stereo not drawn) [Compound 49, 4-Chloro-1-oxetan-3-yl-1H-indole-3-carboxylic acid (2-cyclopentyl-2-hydroxy-propyl)-amide], 500 to 999 nM.
The same measure, in the same setting: next, `O=C(NCC1(O)CCCC2(CC2)C1)c1cn(C2COC2)c2cccc(Cl)c12` (stereo not drawn) [Compound 57, 4-chloro-N-((5-hydroxyspiro[2.5]octan-5-yl)methyl)-1-(oxetan-3-yl)-1H-indole-3-carboxamide]: 101 to 500 nM; `CC(C)(CNC(=O)c1cn(C2CCOC2)c2cccc(Cl)c12)C1CCCC1` (stereo not drawn) [Compound 103, 4-Chloro-1-(tetrahydro-furan-3-yl)-1H-indole-3-carboxylic acid (2-cyclopentyl-2-methyl-propyl)-amide]: 101 to 500 nM; `COCCn1cc(C(=O)NCc2ccccc2C(F)(F)F)c2c(Cl)cccc21` [Compound 24, 4-Chloro-1-(2-methoxy-ethyl)-1H-indole-3-carboxylic acid 2-trifluoromethyl-benzylamide]: 500 to 999 nM.
On the same count and under the same terms, next, `O=C(NCC1(O)CCC(F)(F)CC1)c1cn(C2CCOC2)c2cccc(Cl)c12` (stereo not drawn) [Compound 104, 4-Chloro-1-(tetrahydro-furan-3-yl)-1H-indole-3-carboxylic acid (4,4-difluoro-1-hydroxy-cyclohexylmethyl)-amide]: 101 to 500 nM.
Take `CC1CC(O)(CNC(=O)c2cn(C3CCCO3)c3cccc(Cl)c23)CCC1(F)F` (stereo not drawn) [Compound 97, 4-chloro-N-((4,4-difluoro-1-hydroxy-3-methylcyclohexyl)methyl)-1-(tetrahydrofuran-2-yl)-1H-indole-3-carboxamide]: the half-inhibitory concentration (IC50) was 101 to 500 nM.

Staying with this test, now noted: HEK293 transfected with human P2X7; BzATP 10 uM; YO PRO dye uptake; read-out: hP2X7 IC50.
Consider `O=C(NC(c1cccs1)C1CCCCC1)c1cn(C2COC2)c2cccc(Cl)c12` (stereo not drawn) [Compound 60, 4-Chloro-1-oxetan-3-yl-1H-indole-3-carboxylic acid (cyclohexyl-thiophen-2-yl-methyl)-amide], for which the IC50 was over 1000 nM.
The same measure, in the same setting: next, `COCCn1cc(C(=O)NCc2nc3ccccc3s2)c2c(Cl)cccc21` [Compound 31, N-(benzo[d]thiazol-2-ylmethyl)-4-chloro-1-(2-methoxyethyl)-1H-indole-3-carboxamide]: over 1000 nM; `COCCn1cc(C(=O)NCc2ccco2)c2c(Cl)cccc21` [Compound 28, 4-Chloro-1-(2-methoxy-ethyl)-1H-indole-3-carboxylic acid (furan-2-ylmethyl)-amide]: over 1000 nM.
`O=C(NC(C1CCCC1)C(F)(F)F)c1cn(C2COC2)c2cccc(Cl)c12` (stereo not drawn) [Compound 42, 4-chloro-N-(1-cyclopentyl-2,2,2-trifluoroethyl)-1-(oxetan-3-yl)-1H-indole-3-carboxamide]: the IC50 is over 1000 nM.
Regarding `O=C(NCCC(F)(F)F)c1cn(C2COC2)c2cccc(Cl)c12` [Compound 77, 4-Chloro-1-oxetan-3-yl-1H-indole-3-carboxylic acid (3,3,3-trifluoro-propyl)-amide], the IC50 was over 1000 nM.
Same read-out and setting: to `C[C@@H](NC(=O)c1cn(C2COC2)c2cccc(Cl)c12)[C@@]12C[C@@H]3C[C@@H](C[C@@](O)(C3)C1)C2` [Compound 61, 4-Chloro-1-oxetan-3-yl-1H-indole-3-carboxylic acid [(3-hydroxy-adamantan-1-yl)-ethyl]-amide] belongs 500 to 999 nM; to `O=C(NCC1(O)CCCC(C(F)(F)F)C1)c1cn(C2COC2)c2cccc(Cl)c12` (stereo not drawn) [Compound 47, 4-chloro-N-((1-hydroxy-3-(trifluoromethyl)cyclohexyl)methyl)-1-(oxetan-3-yl)-1H-indole-3-carboxamide], over 1000 nM.
Still for that read-out and setting: next, `CCOC(C)CNC(=O)c1cn(C2COC2)c2cccc(Cl)c12` (stereo not drawn) [Compound 78, 4-Chloro-1-oxetan-3-yl-1H-indole-3-carboxylic acid (2-ethoxy-propyl)-amide]: over 1000 nM.
On the same count and under the same terms, to `COCCn1cc(C(=O)NCc2ccc3c(c2)OCO3)c2c(Cl)cccc21` [Compound 27, 4-Chloro-1-(2-methoxy-ethyl)-1H-indole-3-carboxylic acid (benzo [1,3]dioxol-5-ylmethyl)-amide] belongs over 1000 nM; to `O=C(N[C@@H](CO)C1CCCCC1)c1cn(C2COC2)c2cccc(Cl)c12` [Compound 63, 4-Chloro-1-oxetan-3-yl-1H-indole-3-carboxylic acid ((R)-1-cyclohexyl-2-hydroxy-ethyl)-amide], over 1000 nM.
In the case of `COCCn1cc(C(=O)NCc2cccc3c2OCCO3)c2c(Cl)cccc21` [Compound 23, 4-Chloro-1-(2-methoxy-ethyl)-1H-indole-3-carboxylic acid (2,3-dihydro-benzo[1,4]dioxin-5-ylmethyl)-amide], the IC50 is over 1000 nM.

For the origin of these results see patent US10323000B2, “Indole derivatives and their use in neurodegenerative diseases” (priority 2014, dated 2019).
